Results taken from ChEMBL document CHEMBL3044798, “Nitrogen concentration and application timing affect imazamox efficacy in winter wheat” (Crop Prot, 2009).
Activity calls are given as the source filed them.

How the values were obtained:
Assay type in all cases: functional, organism-based
[1] = tested on: Secale cereale; experiment: Herbicidal activity against feral Secale cereale (rye) treated as spring post-emergence application at winter wheat-growing season in presence of urea ammonium nitrate
[2] = tested on: Secale cereale; experiment: Herbicidal activity against feral Secale cereale (rye) treated as fall post-emergence application at winter wheat-growing season in presence of urea ammonium nitrate
[3] = tested on: Aegilops cylindrica; experiment: Herbicidal activity against Aegilops cylindrica treated as spring post-emergence application at winter wheat-growing season relative to urea ammonium nitrate
[4] = tested on: Aegilops cylindrica; experiment: Herbicidal activity against Aegilops cylindrica treated as fall post-emergence application at winter wheat-growing season relative to urea ammonium nitrate

Measured: Activity

COCc1cnc(C2=NC(C)(C(C)C)C(=O)N2)c(C(=O)O)c1 (centres undefined)
active: all assays above
